Values quoted from earlier work as cited in patent US20050180940A1, “Protect against hair loss” (priority 2004, published 2005).

System: common male-pattern baldness
Details: two daily topical applications, person, after 3-4 weeks

sucralfate
Effect on common male-pattern baldness (hair appearance): appearance of hair in the otherwise bald lateral-frontal areas in the scalp
